Read-outs that look alike come from different tables or passages of the source.
What was measured:
HepG2 = assay: Hepatocyte toxicity; format: cell-based, human; conditions: for Hepatocyte Toxicity: HepG2; for EC50 fold shift compared to asexual stage: Hepatocyte Toxicity: hepatocyte toxicity / 3D7 EC50; for Liver Stage / Hepatocyte Toxicity: toxicity fold shift for the liver stage (hepatocyte toxicity vs liver stage EC50)
Description: (§1) As drugs that eliminate multiple stages of the parasite lifecycle will be critical components in global efforts to eliminate malaria, we were interested in knowing whether the compounds in our study had additional activities against either the liver and/or transmission stages of the parasite lifecycle. To determine this, we first evaluated the compounds in additional phenotypic assays. The first assay was a P. berghei hepatocyte invasion and development assay, which predicts causal prophylactic activity. Hepatocyte toxicity was additionally tested to identify false-positive activity in the liver stage due to host-cell toxicity. Assays were executed in duplicate using a 12-point EC50 curve at starting concentrations of 5 μM or 50 μM (Supplementary Table 1).
(§2) Liver-stage activity was determined by pretreating hepatic human cells (HepG2) for 2 h with compound in 1,536-well plates infected with freshly dissected P. berghei sporozoites. After 48 h of incubation, the viability of P. berghei exoerythrocytic forms was measured by luminescence reaction light output using BrightGlo (Promega). Varying levels of compound concentration were used (5 μM or 50 μM) due to the stock concentration supplied.

[1] = system: ProRS (prolyl t-RNA synthetase L482H, parent Dd2); assay: Cross-resistance EC50 assay, ProRS; format: cell-based; conditions: Plasmodium falciparum; SYBR green 72 hour assay; synchronized parasites; 384-well format; strain ProRS (Dd2 parent)
Description: To evaluate potential overlapping activity against known antimalarial drug targets, we performed dose-response studies with each compound against our assembled set of drug-resistant lines and their corresponding parents, in an asexual blood stage proliferation assay (Table 1). Comparisons were made to the drug-sensitive strain 3D7 when a parent was unavailable (TM90C2A, W2 and Dd2). As laboratories conducted EC50 assays with different strains and protocols, all comparisons were made between assays from the same laboratory and under the same assay conditions. Compounds displaying >5-fold EC50 shifts relative to the parent or sensitive strain were flagged as having potentially non-novel targets. Average fold shifts per strain ranged from 0.82 to 2.34, with a median of 1.23 indicating there was not common resistance to any one resistant clone. No resistance patterns were observed when classifying the compounds based on chemical structure, but this was not surprising given the diversity of compounds chosen. On the other hand, given that these confirmed compounds were derived from larger unconfirmed hit lists to which some filtration criteria may have been applied (for example, elimination of obvious dihydrofolate reductase inhibitors[32]), some[10][11][12][13] pre-existing bias may exist in the set. […]
Alternatively, a SYBR Green-based proliferation approach was used for the 72-h assay, as previously described. Briefly, a culture of either synchronized or asynchronous parasitized RBCs (0.3% parasitemia and 4% haematocrit) in screening medium (identical to supplemented medium above except no serum was added) was exposed to serial drug dilutions. Plates were incubated at 37 °C and gassed with 93% N2, 4% CO2 and 3% O2 for 72 h. Following incubation, 10 × SYBR Green I (Invitrogen; supplied in 10,000 × concentration) in lysis buffer ([…], 5 mM EDTA, 0.16% Saponin wt per vol and 1.6% Triton X vol per vol) was added to the wells and the plates were incubated overnight at room temperature before plate reading. EC50 assays were repeated three times, taking the average EC50 value from each assay set, and removing any outliers using a single iteration of Grubbs' test, eliminating values with z-scores above the critical z-value (α=0.05). The raw EC50 values for synchronized parasites assayed in a 384-well format are listed in Supplementary Data 4. The raw EC50 values for asynchronous parasites assayed in a 96 or 1536-well format are listed in Supplementary Data 5.
EC50 values for each strain were compared with those of the corresponding parent strain to determine fold-shift changes and identify resistance. To minimize the cause variance between assays, all comparisons were conducted between strains assayed under identical conditions. A one-way ANOVA followed by a Dunnet's post-test was conducted in GraphPad Prism to identify significant changes between the parent and resistant strain.

P. falciparum = assay: Rate of killing (parasite viability) assay; format: cell-based, Plasmodium falciparum; conditions: profile compared with chloroquine, pyrimethamine, atovaquone; 48 h treatment
Description: To identify whether selection success could be predicted by compound speed of action, and to gain a greater insight into the potential mechanisms of action, assays were performed to test the killing rate (Supplementary Data 1)[33]. To quantify the killing rate, viability time-course profiles for each compound were compared with antimalarials known to have fast (chloroquine), moderate (pyrimethamine) or slow (atovaquone) rate of action. These rates were then compared with other compound characteristics, including cross-resistance profile, selection success, potency and structural characteristics to identify any possible trends. […] One compound's rate of killing, MMV666080, was unidentifiable due to compound availability. No correlation was seen between compound structure and speed of action. Additionally, there was no correlation found between killing rate and compound potency against 3D7, nor between potency and selection success (Supplementary Fig. 2).
Rate of killing was determined for each compound following a previously described methodology, which uses the invasion of fresh erythrocytes as surrogate of parasite viability. Briefly, parasites were treated with compounds for 48 h. Compound was washed out and fresh-labelled erythrocytes added to the treated parasites. Double stained erythrocytes (RBC label plus parasite DNA label) were quantified and per cent of survival determined.

[2] = system: P. berghei exoerythrocytic forms; assay: Liver-stage P. berghei hepatocyte invasion and development assay (luminescence, HepG2); format: cell-based, Plasmodium berghei; conditions: for EC50 fold shift compared to asexual stage: Liver Stage EC50: liver stage EC50 / 3D7 EC50
Description: as §1, §2

[3] = Plasmodium berghei, HepG2, 48 h, P. berghei sporozoites, HepG2, 48 h, read-out: Liver Stage EC50

## COc1ccccc1CNC(=O)CCn1c(=O)[nH]c2ccsc2c1=O [MMV019066]
HepG2
  Hepatocyte Toxicity: > 5 µM
  EC50 fold shift compared to asexual stage: Hepatocyte Toxicity: > 3
  Liver Stage / Hepatocyte Toxicity: > 15
[1]
  EC50: 42 nM
P. falciparum
  Killing Rate: ATQ (slow)
[2]; P. berghei sporozoites, HepG2, 48 h, read-out: Liver Stage EC50
  EC50: 310 nM
[2]; [3]
  EC50: 318 nM
[2]
  EC50 fold shift compared to asexual stage: Liver Stage EC50: 0.19

## Cl.c1ccc2c(NCCCCCCNc3c4c(nc5ccccc35)CCCC4)c3c(nc2c1)CCCC3 [MMV019555]
HepG2
  Hepatocyte Toxicity: 4.811 µM
  Liver Stage / Hepatocyte Toxicity: 15.06
[1]
  EC50: 230 nM
P. falciparum
  Killing Rate: CQ (fast)
[2]; Plasmodium berghei, HepG2, 48 h, read-out: Liver Stage EC50
  EC50: 319 nM

## COc1ccc(N2CCN(C(CNC(=O)C3CCCCC3)c3ccc4c(c3)OCO4)CC2)cc1 (stereo not drawn) [MMV019662]
HepG2
  Hepatocyte Toxicity: > 50 µM
  EC50 fold shift compared to asexual stage: Hepatocyte Toxicity: > 147
  Liver Stage / Hepatocyte Toxicity: > 2.65
[1]
  EC50: 481 nM
P. falciparum
  Killing Rate: ATQ (slow)
[2]; [3]
  EC50: 18900 nM
[2]
  EC50 fold shift compared to asexual stage: Liver Stage EC50: 55.47

## COc1ccc(-c2nc(NC(=O)Cc3ccc4c(c3)OCCO4)sc2C)cc1 [MMV019719]
HepG2
  Hepatocyte Toxicity: 20.33 µM
  EC50 fold shift compared to asexual stage: Hepatocyte Toxicity: 123.96
  Liver Stage / Hepatocyte Toxicity: 1.94
[1]
  EC50: 244 nM
P. falciparum
  Killing Rate: CQ (fast)
[2]; [3]
  EC50: 10500 nM
[2]
  EC50 fold shift compared to asexual stage: Liver Stage EC50: 63.78

## Cc1ccc(Oc2ncccc2C(=O)Cc2cccc3cccnc23)c(C)c1 [MMV020746]
HepG2
  Hepatocyte Toxicity: 31.56 µM
  EC50 fold shift compared to asexual stage: Hepatocyte Toxicity: 415.26
  Liver Stage / Hepatocyte Toxicity: 2.61
[1]
  EC50: 278 nM
P. falciparum
  Killing Rate: ATQ (slow)
[2]; [3]
  EC50: 12100 nM
[2]
  EC50 fold shift compared to asexual stage: Liver Stage EC50: 159.34

## COc1cc(-c2nc(-c3ccccc3)c(-c3ccccc3)[nH]2)cc(OC)c1O [MMV020750]
HepG2
  Hepatocyte Toxicity: > 5 µM
  EC50 fold shift compared to asexual stage: Hepatocyte Toxicity: > 15
  Liver Stage / Hepatocyte Toxicity: > 1
[1]
  EC50: 919 nM
P. falciparum
  Killing Rate: PYR (moderate)
[2]; [3]
  EC50: > 5000 nM
[2]
  EC50 fold shift compared to asexual stage: Liver Stage EC50: 23.86

## CCCCCCCN(Cc1ccc(OC(C)(C)C(=O)OCC)cc1)C(=O)Nc1ccc(Cl)cc1OCC [MMV021735]
HepG2
  Hepatocyte Toxicity: > 50 µM
  EC50 fold shift compared to asexual stage: Hepatocyte Toxicity: > 130
  Liver Stage / Hepatocyte Toxicity: > 18
[1]
  EC50: 269 nM
P. falciparum
  Killing Rate: ATQ (slow)
[2]; [3]
  EC50: 2690 nM
[2]
  EC50 fold shift compared to asexual stage: Liver Stage EC50: 7.03

## CN(C)Cc1ccc(-c2cc3c(-c4ccc(CN(C)C)cc4)ccnc3[nH]2)cc1.O=C(O)C(F)(F)F [MMV022224]
HepG2
  Hepatocyte Toxicity: 2.32 µM
  Liver Stage / Hepatocyte Toxicity: 2.90
[1]
  EC50: 294 nM
P. falciparum
  Killing Rate: CQ (fast)
[2]; [3]
  EC50: 801 nM

## Nc1ncc(-c2cn[nH]c2)cc1-c1nc2ccc(F)cc2[nH]1 [MMV023367]
HepG2
  Hepatocyte Toxicity: 4.228 µM
  EC50 fold shift compared to asexual stage: Hepatocyte Toxicity: 14.00
  Liver Stage / Hepatocyte Toxicity: 6.92
[1]
  EC50: 517 nM
P. falciparum
  Killing Rate: CQ (fast)
[2]; [3]
  EC50: 611 nM
[2]
  EC50 fold shift compared to asexual stage: Liver Stage EC50: 2.02

## CN(C)S(=O)(=O)c1cc(-c2ccc3nccc(-c4cccc(S(N)(=O)=O)c4)c3c2)cnc1N [MMV024038]
HepG2
  Hepatocyte Toxicity: 0.1461 µM
  EC50 fold shift compared to asexual stage: Hepatocyte Toxicity: 0.64
  Liver Stage / Hepatocyte Toxicity: 13.52
[1]
  EC50: 143 nM
P. falciparum
  Killing Rate: PYR/CQ (moderate)
[2]; [3]
  EC50: 10.8 nM
[2]; Plasmodium berghei, HepG2, text values, read-out: Liver stage EC50 (PfLuc EC50)
  EC50: 10 nM
[2]
  EC50 fold shift compared to asexual stage: Liver Stage EC50: 0.05

## Cc1ccc(S(=O)(=O)n2cc(-c3ccnc(N)c3)c3cc(Br)cnc32)cc1 [MMV024114]
HepG2
  Hepatocyte Toxicity: 9.39 µM
  EC50 fold shift compared to asexual stage: Hepatocyte Toxicity: 35.43
  Liver Stage / Hepatocyte Toxicity: 1.58
[1]
  EC50: 669 nM
P. falciparum
  Killing Rate: PYR/CQ (moderate)
[2]; [3]
  EC50: 5940 nM
[2]
  EC50 fold shift compared to asexual stage: Liver Stage EC50: 22.40

## CNCc1ccc2nc(-c3coc(Cc4cc(Cl)ccc4OCC(C)C)n3)[nH]c2c1.Cl.Cl [MMV026596]
HepG2
  Hepatocyte Toxicity: 13.42 µM
  EC50 fold shift compared to asexual stage: Hepatocyte Toxicity: 38.79
  Liver Stage / Hepatocyte Toxicity: 2.07
[1]
  EC50: 349 nM
P. falciparum
  Killing Rate: PYR (moderate)
[2]; [3]
  EC50: 6470 nM
[2]
  EC50 fold shift compared to asexual stage: Liver Stage EC50: 18.71

## COc1cc(-c2nc(-c3ccccc3)c(-c3ccccc3)[nH]2)ccc1OCCN(C)C [MMV027496]
HepG2
  Hepatocyte Toxicity: 13.49 µM
  EC50 fold shift compared to asexual stage: Hepatocyte Toxicity: 121.53
  Liver Stage / Hepatocyte Toxicity: 4.25
[1]
  EC50: 311 nM
P. falciparum
  Killing Rate: PYR/CQ (moderate)
[2]; [3]
  EC50: 3170 nM
[2]
  EC50 fold shift compared to asexual stage: Liver Stage EC50: 28.59

## CC(C)c1cccc(C(NC(=O)C2Cc3ccccc3CN2C(=O)c2cccc(N3CCOCC3)c2)C2CCCC2)c1 (stereo not drawn) [MMV028038]
HepG2
  Hepatocyte Toxicity: 19.24 µM
  EC50 fold shift compared to asexual stage: Hepatocyte Toxicity: 35.63
  Liver Stage / Hepatocyte Toxicity: 3.59
[1]
  EC50: 297 nM
P. falciparum
  Killing Rate: ATQ (slow)
[2]; [3]
  EC50: 5360 nM
[2]
  EC50 fold shift compared to asexual stage: Liver Stage EC50: 9.92

## O=C(NCC(CCCN1CCC(c2c[nH]c3ccccc23)CC1)c1ccccc1)Nc1ccc(Cl)c(Cl)c1 (stereo not drawn) [MMV029272]
HepG2
  Hepatocyte Toxicity: 5.366 µM
  EC50 fold shift compared to asexual stage: Hepatocyte Toxicity: 39.46
  Liver Stage / Hepatocyte Toxicity: 2.98
[1]
  EC50: 592 nM
P. falciparum
  Killing Rate: PYR (moderate)
[2]; [3]
  EC50: 1800 nM
[2]
  EC50 fold shift compared to asexual stage: Liver Stage EC50: 13.22

## CC(C)(C)OC(=O)N1CCN(c2ccccc2NC(=O)c2cccc(C(F)(F)F)c2Oc2ccc(F)cc2)CC1 [MMV030666]
HepG2
  Hepatocyte Toxicity: 10.17 µM
  EC50 fold shift compared to asexual stage: Hepatocyte Toxicity: 20.93
  Liver Stage / Hepatocyte Toxicity: 16.60
[1]
  EC50: 284 nM
P. falciparum
  Killing Rate: PYR (moderate)
[2]; [3]
  EC50: 613 nM
[2]
  EC50 fold shift compared to asexual stage: Liver Stage EC50: 1.26

## CC(NCc1ccccc1)c1cc(Cl)ccc1O (stereo not drawn) [MMV665789]
HepG2
  Hepatocyte Toxicity: > 5 µM
  EC50 fold shift compared to asexual stage: Hepatocyte Toxicity: > 4
[1]
  EC50: 334 nM
P. falciparum
  Killing Rate: PYR (moderate)
[2]; [3]
  EC50: > 5000 nM
[2]
  EC50 fold shift compared to asexual stage: Liver Stage EC50: > 4

## FC(F)(F)c1cccc(Nc2nc3ccccc3nc2Nc2cccc(C(F)(F)F)c2)c1 [MMV665794]
HepG2
  Hepatocyte Toxicity: 1.374 µM
  Liver Stage / Hepatocyte Toxicity: 3.67
[1]
  EC50: 93 nM
P. falciparum
  Killing Rate: PYR (moderate)
[2]; [3]
  EC50: 375 nM

## O=C(Nc1ccc(Cl)c(Cl)c1)Nc1ccc(Cl)c(Cl)c1 [MMV665852]
HepG2
  Hepatocyte Toxicity: 2.594 µM
  Liver Stage / Hepatocyte Toxicity: 7.56
[1]
  EC50: 716 nM
P. falciparum
  Killing Rate: CQ (fast)
[2]; [3]
  EC50: 343 nM

— article PMC4912613, “A broad analysis of resistance development in the malaria parasite” (Nature Communications, 2016)
